Earlier results, collected in patent publication US10786601B2, “Composition comprising hyaluronic acid and mepivacaine” (Teoxane, priority 2013, dated 2020).

Cc1cccc(C)c1NC(=O)C1CCCCN1C (racemic) [mepivacaine]
pKa: 7,6
